The values that follow come from article PMC10342804, “Neuroprotective and Disease-Modifying Effects of the Triazinetrione ACD856, a Positive Allosteric Modulator of Trk-Receptors for the Treatment of Cognitive Dysfunction in Alzheimer’s Disease” (International Journal of Molecular Sciences, 2023).

Details of test [1]: method as in PMID 34440640. As to conditions: s.c., doses 0.3 mg/kg up to 3 mg/kg; cited from earlier work.
A further test deals with C57BL/6J mice. The test is described as follows: Forced swim test. Format: in vivo, mouse. As to conditions: ACD856 1 mg/kg s.c. five days; ketamine single dose 10 mg/kg seven days prior to swimming session. On the procedure: Depression-like behavior was assessed in male C57BL/6J mice using a modified version of the FST, as described previously. This included a two-day protocol test, with pre-exposure to water 24 h prior to the test (day one of FST), which seems to be a more accurate and sensitive technique in detecting depression-like behavior in mice than the standard method of a single exposure (one day test). Animals were individually placed in a vertical glass cylinder (50 cm high, 20 cm in diameter, CMA) filled with tap water up to 35 cm (25 ± 0.5 °C). Two swimming sessions were conducted: a 10 min pre-test (day one) followed 24 h later (day two) by a 6 min test session. The total duration of immobility, as well as latency to the first immobility, were recorded during the 6 min test. After each swimming session, the mice were gently removed and placed in a home cage together with dry napkins. Immobility was defined as floating passively in an upright position in water with only small movements necessary to keep the head above the water’s surface. The floating time was considered an index of depression-like behavior. The glass cylinder was cleaned thoroughly between each animal.

In test [2] the test system is primary cortical neurons. The test can be described thus: Mitochondrial ToxGlo assay (ATP levels, cell membrane integrity), energy-deprived primary neurons. As to conditions: for cell membrane integrity: glucose and pyruvate withdrawal; for ATP levels: neurotrophins, 6 h, no glucose or pyruvate. The class given is cell-based, mouse. On the procedure:
(§1) Metabolic activity was determined by measuring reduction in resazurin (a). […] Data shown are the means of all replicates +/− SEM from at least three different primary cultures. * p-value < 0.05, ** p-value < 0.01, *** p-value < 0.001, **** p-value < 0.0001 compared to control group at one-way ANOVA with Dunnett’s multiple comparisons test.
Mitochondrial ToxGlo assay was used to evaluate the cell membrane integrity and the ATP levels of PCN cells. At DIV4–5, cells seeded at […] in 96-well plates were treated for six and three hours with increasing doses of neurotrophins and ACD856, respectively, in Neurobasal-A media containing 2% B27 and 2 mM glutamine. No glucose or pyruvate was present in the cell media to prevent non-mitochondrial ATP production from glycolysis. Then, bis-AAF-R110, a fluorogenic substrate that is exclusively cleaved by proteases released from membrane-compromised cells, was added, and the plate was incubated at 37 °C for 30 min. Fluorescence was measured at 485 nm (Ex)/530 nm (Em) using a SpectraMax iD5 plate reader. Next, the ATP detection reagent was added, and luminescence was measured after 5 min incubation to assess ATP levels in lysed cells.

Test [3] deals with ERK1/2 and Trk-receptors phosphorylation. The test is described as follows: Western blot of pERK1/2 and phospho-Trk in cortical neurons stimulated with growth factors. The class given is cell-based, mouse. As to conditions: 10 ng/mL factor, 20 min. On the procedure: (§2) Figure 2 Increased activation of TrkB and downstream signaling through ERKK1/2 MAPK phosphorylation by BDNF and ACD856. Levels of phosphorylated TrkB receptors were determined by ELISA in SH-SY5Y cells overexpressing the human TrkB receptor (a). Effect of 0 (open bars), 10 (light grey bars), or 30 ng BDNF/mL (dark grey bars) and time course on BDNF-induced TrkB tyrosine phosphorylation are depicted as the mean of one experiment performed in quadruplicates +/− SEM * p < 0.05. SH-SY5Y-TrkB cells were incubated with 30 ng BDNF/mL for 10 min in the absence (DMSO) or presence of increasing concentrations of ACD856 (b). […] Data shown are the mean value +/− SEM from three independent experiments where each experiment was performed using at least 5 technical repeats. The effect of different neurotrophic factors on the phosphorylation of ERK1/2 and Trk-receptors was investigated (c). Cortical neurons were stimulated with 10 ng/mL of the indicated factors, and the levels of pERK1/2 (upper panel), phospho-Trk (tyrosine 674/675) (mid panel), and beta-actin as a loading control (lower panel) were analyzed by Western blot. Primary cortical neurons were incubated with 300 nM ACD856 for the indicated time periods in the absence of exogenous BDNF (d). The levels of phosphorylated ERK1/2 were determined by immunocytochemistry, and the total count per well of pERK1/2-positive neurites was determined. Fluorescence image at ×10 magnification showing phospho-ERK1/2 detected with immunocytochemistry in cortical neurons (e). * p < 0.05, ** p < 0.01 compared to control group at one-way ANOVA with Dunnett’s multiple comparisons test. Data shown are the mean value of all replicates +/− SEM from three different experiments.
Phosphorylated ERK 1/2 (pERK1/2) levels were evaluated in mouse primary neurons between DIV10–15. Cells were seeded at (60 × 10^4 cells) in 6-well plates coated with poly-D-Lysine. The activation of the Trk signaling pathway was induced with 10 ng/mL ligand for 20 min. Cells were thereafter immediately lysed on ice, sonicated, and denatured at 95 °C for 10 min on a heating block. Proteins were separated on a Novex Bis-Tris 4–12% gel and transferred to a PVDF membrane using an iBlot instrument (Invitrogen). The membrane was blocked using 5% BSA in TBS-T followed by incubation with anti-phospho-p44/42 MAPK (ERK1/2) rabbit monoclonal antibody (Cell Signaling CS-4370) (dilution 1:1000) in TBS-T with 0.1% BSA for at least 60 min. […] After washing, a Western blot detection reagent (Forte, Millipore) was added, and immunoreactive proteins were detected by luminescence using C-DiGit Blot Scanner and quantified with Image Studio™ Software (version 5.2). […]

In test [4] the test system is primary cortical neurons. The test can be described thus: Resazurin assay, energy-deprived primary cortical neurons. As to conditions: 10 ng/mL, no glucose or pyruvate, vs untreated cells. The class given is cell-based, mouse. On the procedure:
as §1
Cells were seeded at […] in 96-well plates and treated at DIV4–5 in Neurobasal-A media with 2% B27 and 2 mM glutamine (no glucose or pyruvate was present). Two hours after treatment, a 10% volume of resazurin ready-to-use solution was added to the cell culture media, and the plates were returned to the incubator for a further four hours. Resazurin reduction is directly proportional to metabolic function and was evaluated fluorometrically at 540 nm excitation and 580 nm emission wavelengths using a SpectraMax iD5 plate reader. Results were presented as a percentage change compared to the control group.

A further test concerns the target T1, human TrkB receptor (Homo sapiens, UniProt Q16620).
T1 construct: host or cells: SH-SY5Y (human neuroblastoma) stably expressing TrkB
The test is described as follows: Phospho-TrkB ELISA in SH-SY5Y cells overexpressing TrkB. Format: cell-based. As to conditions: 10 or 30 ng BDNF/mL, time course. Here is the method:
as §2, with “The effect of different neurotrophic factors on the phosphorylation of ERK1/2 and Trk-receptors was investigated (c).” left out, “Primary cortical neurons were incubated with 300 nM ACD856 for the indicated time periods in the absence of exogenous BDNF (d).” left out, “Data shown are the mean value of all replicates +/− SEM from three different experiments.” left out

As to `Cc1cc(-n2c(=O)[nH]c(=O)n(C)c2=O)ccc1Oc1ccc(S(=O)(=O)C(F)(F)F)cc1` [ACD855], the “pro-cognitive effects in cognition models” value in test [1] was “potent pro-cognitive effects”.
Turning to `CNC1(c2ccccc2Cl)CCCCC1=O` (stereo not shown) [Ketamine, ketamine], the “prolonged effect on immobility time in forced swim test” value in the test with C57BL/6J mice is on record as “prolonged antidepressive-like effects”.
For “BDNF: recombinant human brain-derived neurotrophic factor (PeproTech 450-02)”, in the test on primary cortical neurons [2], the cell membrane integrity entry is reported as “improved cell membrane integrity” and the ATP levels result is given as “able to increase ATP levels”. Also, in test [3], the “phosphorylation of ERK1/2” value was “the most effective growth factors with respect to inducing phosphorylation of ERK1/2” and the “phosphorylation of Trk-receptors (pY674/675)” value is “the only growth factors that induced phosphorylation of Trk-receptors”. Also, in the test with primary cortical neurons [4], the “metabolic activity (reduction of resazurin)” value is reported as “significantly higher fluorescence”.
On to “NGF: recombinant human nerve growth factor (PeproTech 450-01)”, for which, in the test on primary cortical neurons [2], the cell membrane integrity result was “improved cell membrane integrity” and the ATP levels entry is “able to increase ATP levels”. Also, the “metabolic activity (reduction of resazurin)” value in the test with primary cortical neurons [4] is “significantly higher fluorescence”.

B1: NT3: neurotrophin-3, binds to TrkC (protein, UniProt P20783 139-257, looked up)
Neurotrophin-3: YAEHKSHRGEYSVCDSESLWVTDKSSAIDIRGHQVTVLGEIKTGNSPVKQYFYETRCKEARPVKNGCRGIDDKHWNSQCKTSQTYVRALTSENNKLVGWRWIRIDTSCVCALSRKIGRT
As to B1, in test [3], the “phosphorylation of ERK1/2” value was “the most effective growth factors with respect to inducing phosphorylation of ERK1/2” and the “phosphorylation of Trk-receptors (pY674/675)” value is “the only growth factors that induced phosphorylation of Trk-receptors”.

B2: BDNF: recombinant human brain-derived neurotrophic factor (PeproTech 450-02) (protein, UniProt P23560 19-247, looked up)
Neurotrophic factor BDNF …: APMKEANIRGQGGLAYPGVRTHGTLESVNGPKAGSRGLTSLADTFEHVIEELLDEDQKVRPNEENNKDADLYTSRVMLSSQVPLEPPLLFLLEEYKNYLDAANMSMRVRRHSDPARRGELSVCDSISEWVTAADKKTAVDMSGGTVTVLEKVPVSKGQLKQYFYETKCNPMGYTKEGCRGIDKRHWNSQCRTTQSYVRALTMDSKKRIGWRFIRIDTSCVCTLTIKRGR
In the case of B2, the “BDNF-induced TrkB tyrosine phosphorylation” value in the test with human TrkB receptor was “in a dose- and time-dependent manner, increase TrkB phosphorylation”.
